Test results taken from the NIST ThermoML archive (doi:10.1021/je060026r).

Assay: excess molar enthalpy (molar enthalpy of mixing); xn = mol fraction of the nth substance listed
Settings: 313.15 K, 101 kPa, Liquid, Flow calorimetry

COCC(C)O (stereo unspecified) [1-methoxy-2-propanol] + C1CCCCC1
Settings	excess molar enthalpy [kJ/mol]
x1 = 0.0547	0.585
x1 = 0.109	0.892
x1 = 0.1626	1.09
x1 = 0.2158	1.24
x1 = 0.2684	1.33
x1 = 0.3205	1.4
x1 = 0.3721	1.43
x1 = 0.4232	1.44
x1 = 0.4738	1.43
x1 = 0.5239	1.4
x1 = 0.5736	1.34
x1 = 0.6227	1.28
x1 = 0.6715	1.19
x1 = 0.7197	1.08
x1 = 0.7675	0.949
x1 = 0.8149	0.8
x1 = 0.8618	0.627
x1 = 0.9083	0.439
x1 = 0.9544	0.227

COCC(C)O (stereo unspecified) [1-methoxy-2-propanol] + c1ccccc1
Settings	excess molar enthalpy [kJ/mol]
x1 = 0.0455	0.321
x1 = 0.0914	0.519
x1 = 0.1377	0.651
x1 = 0.1845	0.736
x1 = 0.2317	0.785
x1 = 0.2794	0.811
x1 = 0.3276	0.815
x1 = 0.3763	0.808
x1 = 0.4254	0.779
x1 = 0.475	0.749
x1 = 0.5251	0.699
x1 = 0.5758	0.642
x1 = 0.6269	0.583
x1 = 0.6786	0.509
x1 = 0.7308	0.433
x1 = 0.7835	0.351
x1 = 0.8368	0.269
x1 = 0.8906	0.182
x1 = 0.945	0.0903

CCCCOCCO [2-butoxyethan-1-ol] + C1CCCCC1
Settings	excess molar enthalpy [kJ/mol]
x2 = 0.0414	0.417
x2 = 0.0836	0.625
x2 = 0.1265	0.766
x2 = 0.1702	0.866
x2 = 0.2148	0.93
x2 = 0.2602	0.976
x2 = 0.3065	1
x2 = 0.3536	1.02
x2 = 0.4017	1.01
x2 = 0.4507	0.997
x2 = 0.5007	0.959
x2 = 0.5518	0.915
x2 = 0.6038	0.853
x2 = 0.6569	0.78
x2 = 0.7111	0.689
x2 = 0.7665	0.582
x2 = 0.823	0.46
x2 = 0.8807	0.322
x2 = 0.9397	0.168

CCCCOCCO [2-butoxyethan-1-ol] + c1ccccc1
Settings	excess molar enthalpy [kJ/mol]
x2 = 0.0343	0.256
x2 = 0.0698	0.42
x2 = 0.1064	0.528
x2 = 0.1444	0.608
x2 = 0.1836	0.652
x2 = 0.2243	0.677
x2 = 0.2665	0.69
x2 = 0.3103	0.682
x2 = 0.3557	0.666
x2 = 0.4029	0.639
x2 = 0.452	0.602
x2 = 0.503	0.556
x2 = 0.5562	0.499
x2 = 0.6116	0.441
x2 = 0.6694	0.373
x2 = 0.7297	0.304
x2 = 0.7927	0.228
x2 = 0.8586	0.15
x2 = 0.9277	0.0731
